Assay results from patent US20230172961A1 (priority 2020, published 2023).
Where two headings read alike, the source gives them in different places.

How the values were obtained:
Format in all cases: biochemical
[1] = molecular target: SARS-CoV-2 RdRp (nsp12, nsp7 and nsp8) (Severe acute respiratory syndrome coronavirus 2, UniProt P0DTD1)
[2] = molecular target: SARS-CoV RdRp (nsp12, nsp7 and nsp8) (Severe acute respiratory syndrome coronavirus, UniProt P0C6X7)
[3] = tested on: RdRp of SARS-CoV and/or SARS-CoV-2
[4] = molecular target: SARS-CoV-2 exonuclease complex (nsp14/nsp10) (Severe acute respiratory syndrome coronavirus 2, UniProt P0DTD1); test: Inhibition of SARS-CoV-2 exonuclease, MALDI-TOF MS
[5] = 150 µM inhibitor, 30 nM nsp14/nsp10, 37° C., 15 min
[6] = 10 µM inhibitor, 30 nM nsp14/nsp10, 37° C., 15 min
[7] = 30 µM inhibitor, 30 nM nsp14/nsp10, 37° C., 15 min
[8] = 100 µM inhibitor, 30 nM nsp14/nsp10, 37° C., 15 min
[9] = 300 µM inhibitor, 30 nM nsp14/nsp10, 37° C., 15 min

## CC(Cn1cnc2c(N)ncnc21)OCP(=O)(O)OP(=O)(O)OP(=O)(O)O (stereo in doubt) [TFV-DP, Tenofovir diphosphate]
[1]
  termination of the polymerase reaction: obligate terminator for the RdRp

## O=c1ccn([C@@H]2O[C@H](COP(=O)(O)OP(=O)(O)OP(=O)(O)O)[C@@H](O)[C@H]2F)c(=O)[nH]1 [2′-F-dUTP, 2′-fluoro-2′-deoxyuridine-5′-triphosphate]
[2]
  incorporation efficiency: incorporated very efficiently
[1]
  relative incorporation efficiency in equimolar combinations: incorporated far better than 2′-O-Me-UTP and dUTP
  termination of the polymerase reaction in equimolar combinations: not terminators of the polymerase reaction
[3]
  termination of the polymerase reaction (summary of the 11 tested): did not terminate the polymerase reaction

## N[C@@H]1[C@H](O)[C@@H](COP(=O)(O)OP(=O)(O)OP(=O)(O)O)O[C@H]1n1ccc(=O)[nH]c1=O [2′-NH2-dUTP, 2′-amino-2′-deoxyuridine-5′-triphosphate]
[1]
  relative incorporation efficiency in equimolar combinations: more efficiently incorporated than 2′-O-Me-UTP and dUTP
  termination of the polymerase reaction in equimolar combinations: not terminators of the polymerase reaction
[3]
  termination of the polymerase reaction (summary of the 11 tested): did not terminate the polymerase reaction

## CO[C@@H]1[C@H](O)[C@@H](COP(=O)(O)OP(=O)(O)OP(=O)(O)O)O[C@H]1n1ccc(=O)[nH]c1=O [2′-OMe-UTP, 2′-O-methyluridine-5′-triphosphate]
[2]
  termination of the polymerase reaction: significant polymerase reaction termination
[1]
  termination of the polymerase reaction: significant termination after the first incorporation step
[3]
  termination of the polymerase reaction (summary of the 11 tested): incomplete or delayed termination

## Cc1cn([C@H]2C[C@H](F)[C@@H](COP(=O)(O)OP(=O)(O)OP(=O)(O)O)O2)c(=O)[nH]c1=O [3′-F-dTTP, 3′-fluoro-3′-deoxythymidine triphosphate]
[2]
  termination of the polymerase reaction: permanent terminators
[1]
  incorporation efficiency: efficient substrates of the RdRp
  termination of the polymerase reaction: no further incorporation

## Cc1cn([C@H]2C[C@H](N=[N+]=[N-])[C@@H](COP(=O)(O)OP(=O)(O)OP(=O)(O)O)O2)c(=O)[nH]c1=O [3′-N3-dTTP, 3′-N3-3′-deoxythymidine triphosphate]
[2]
  termination of the polymerase reaction: permanent terminators
[1]
  incorporation efficiency: incorporation efficiency was lower than for 2′-F,Me-UTP and 3′-F-dTTP
  termination of the polymerase reaction: no evidence of further incorporation

## CO[C@H]1[C@@H](O)[C@H](n2ccc(=O)[nH]c2=O)O[C@@H]1COP(=O)(O)OP(=O)(O)OP(=O)(O)O [3′-OMe-UTP, 3′-0-methyluridine-5′-triphosphate]
[2]
  incorporation efficiency: lower incorporation efficiency
  termination of the polymerase reaction: obligate terminator
[3]
  termination of the polymerase reaction (summary of the 11 tested): complete termination of the polymerase reaction

## Nc1nc(=O)n([C@@H]2CS[C@H](COP(=O)(O)OP(=O)(O)OP(=O)(O)O)O2)cc1F [Ec-TP, Emtricitabine triphosphate]
[1]
  incorporation efficiency: relatively poor incorporation

## COc1cc2c(cc1Cc1cccc(Cl)c1F)c(=O)c(C(=O)O)cn2[C@H](CO)C(C)C [Elvitegravir]
[4]; concentration not stated for this compound (FIG. 59d)
  inhibition of exonuclease activity: able to inhibit the exonuclease

## Nc1ccn([C@@H]2CS[C@H](COP(=O)(O)OP(=O)(O)OP(=O)(O)O)O2)c(=O)n1 [Lam-TP, Lamivudine triphosphate]
[1]
  incorporation efficiency: relatively poor incorporation

## COC(=O)N[C@H](C(=O)N1CC2(CC2)C[C@H]1c1nc(-c2ccc3c(c2)C(F)(F)c2cc(-c4ccc5[nH]c([C@@H]6[C@H]7CC[C@H](C7)N6C(=O)[C@@H](NC(=O)OC)C(C)C)nc5c4)ccc2-3)c[nH]1)C(C)C [Ledipasvir]
[4]; [5]
  inhibition of exonuclease activity: able to inhibit the exonuclease

## Cc1cccc(C)c1OCC(=O)N[C@@H](Cc1ccccc1)[C@@H](O)C[C@H](Cc1ccccc1)NC(=O)[C@H](C(C)C)N1CCCNC1=O [Lopinavir]
[4]; [6]
  inhibition of exonuclease activity: small inhibition of the exonuclease activity
[4]; [7]
  inhibition of exonuclease activity: fragmentation peaks are further reduced
[4]; [8]
  inhibition of exonuclease activity: fragmentation peaks are further reduced
[4]; [9]
  inhibition of exonuclease activity: complete inhibition of exonuclease activity

## COC(=O)N[C@H](C(=O)N1CCC[C@H]1C(=O)Nc1ccc([C@@H]2CC[C@@H](c3ccc(NC(=O)[C@@H]4CCCN4C(=O)[C@@H](NC(=O)OC)C(C)C)cc3)N2c2ccc(C(C)(C)C)cc2)cc1)C(C)C [Ombitasvir]
[4]; 1 µM inhibitor, 30 nM nsp14/nsp10, 37° C., 15 min
  inhibition of exonuclease activity: shows inhibition of the exonuclease activity
[4]; [6]
  inhibition of exonuclease activity: significantly increased inhibition of exonuclease activity
[4]; [5]
  inhibition of exonuclease activity: able to inhibit the exonuclease

## COC(=O)N[C@H](C(=O)N1CCC[C@H]1c1nc2cc([C@H]3CC[C@H](c4cc5nc([C@@H]6CCCN6C(=O)[C@@H](NC(=O)OC)[C@@H](C)OC)[nH]c5cc4F)N3c3cc(F)c(N4CCC(c5ccc(F)cc5)CC4)c(F)c3)c(F)cc2[nH]1)[C@@H](C)OC [Pibrentasvir]
[4]; 0.1 µM inhibitor, 30 nM nsp14/nsp10, 37° C., 15 min
  inhibition of exonuclease activity: shows inhibition of the exonuclease activity
[4]; [6]
  inhibition of exonuclease activity: significantly increased inhibition of exonuclease activity
[4]; [5]
  inhibition of exonuclease activity: able to inhibit the exonuclease

## CC(C)c1nc(CN(C)C(=O)N[C@H](C(=O)N[C@@H](Cc2ccccc2)C[C@H](O)[C@H](Cc2ccccc2)NC(=O)OCc2cncs2)C(C)C)cs1 [Ritonavir]
[4]; [6]
  inhibition of exonuclease activity: shows inhibition of the exonuclease activity
[4]; [7]
  inhibition of exonuclease activity: fragmentation peaks are further reduced
[4]; [8]
  inhibition of exonuclease activity: fragmentation peaks are further reduced
[4]; [9]
  inhibition of exonuclease activity: complete inhibition of exonuclease activity

## Cc1cn([C@H]2C=C[C@@H](COP(=O)(O)OP(=O)(O)OP(=O)(O)O)O2)c(=O)[nH]c1=O [Sta-TP, Stavudine 5′-triphosphate]
[1]
  incorporation efficiency: very efficiently incorporated
  termination of the polymerase reaction: complete termination of the polymerase reaction
  termination of the polymerase reaction at 10-fold lower concentration: resulted in termination of the polymerase reaction
[3]
  termination of the polymerase reaction (summary of the 11 tested): complete termination of the polymerase reaction

## O=c1ccn([C@@H]2O[C@H](COP(=O)(O)OP(=O)(O)OP(=O)(O)O)[C@@H](O)[C@H]2O)c(=O)[nH]1 [UTP]
[2]
  termination of the polymerase reaction: primer extension by 2 UTPs occurred

## O=c1ccn([C@H]2C[C@H](O)[C@@H](COP(=O)(O)OP(=O)(O)OP(=O)(O)O)O2)c(=O)[nH]1 [dUTP]
[1]; 250 µM each nucleotide, equimolar combinations (FIG. 36)
  relative incorporation efficiency in equimolar combinations: lower incorporation efficiency than the natural UTP

## Sofosbuvir
[1]; […], RDV-TP together with UTP
  extension of the RNA template-loop-primer: complete conversion

## biotin-16-aminoallyl-2′-deoxyuridine-5′-triphosphate [Biotin-dUTP]
[1]
  relative incorporation efficiency in equimolar combinations: lower incorporation efficiency than the natural UTP
  termination of the polymerase reaction: terminator of the polymerase reaction
[3]
  termination of the polymerase reaction (summary of the 11 tested): complete termination of the polymerase reaction

## desthiobiotin-16-aminoallyl-uridine-5′-triphosphate [Desthio-UTP]
[1]
  incorporation efficiency: incorporated
  termination of the polymerase reaction: does not terminate the polymerase reaction
[3]
  termination of the polymerase reaction (summary of the 11 tested): did not terminate the polymerase reaction
